Measurements published in ChEMBL document CHEMBL1201862, “PubChem BioAssay data set” (2004).
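All cell lines were grown in 96-well plates and treated with compound for 48 hours. GI50 marks 50% less growth.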 Calls of active or inactive are those of the source. No stated cut-off is given here; in the data, active = GI50 up to about 1.1 µM and inactive = higher.

What was measured:
Assay in all cases: growth of human tumour cells (NCI), 48 h
HT-29 = test system: HT-29
SF-539 = test system: SF-539
SNB-19 = test system: SNB-19
SNB-75 = test system: SNB-75
SK-MEL-5 = test system: SK-MEL-5
RPMI-8226 = test system: RPMI-8226
CAKI-1 = test system: CAKI-1
HL-60 = test system: HL-60
HCC 2998 = test system: HCC 2998
SF-268 = test system: SF-268
HOP-62 = test system: HOP-62
OVCAR-8 = test system: OVCAR-8
SW-620 = test system: SW-620
A498 = test system: A498
M19-MEL = test system: M19-MEL
TK-10 = test system: TK-10
LXFL 529 = test system: LXFL 529
OVCAR-4 = test system: OVCAR-4
COLO 205 = test system: COLO 205
KM12 = test system: KM12
K562 = test system: K562
HCT-116 = test system: HCT-116
SK-MEL-2 = test system: SK-MEL-2
SNB-78 = test system: SNB-78
HOP-92 = test system: HOP-92
MOLT-4 = test system: MOLT-4
OVCAR-5 = test system: OVCAR-5
SK-MEL-28 = test system: SK-MEL-28
786-0 = test system: 786-0
OVCAR-3 = test system: OVCAR-3
SR = test system: SR
EKVX = test system: EKVX
NCI-H23 = test system: NCI-H23
UACC-62 = test system: UACC-62
SN12C = test system: SN12C
KM-20L2 = test system: KM-20L2
Malme-3M = test system: Malme-3M
ACHN = test system: ACHN
SK-OV-3 = test system: SK-OV-3
U-251 = test system: U-251
DMS-114 = test system: DMS-114
M14 = test system: M14
NCI-H522 = test system: NCI-H522
SF-295 = test system: SF-295
UO-31 = test system: UO-31
CCRF-CEM = test system: CCRF-CEM
RXF 393 = test system: RXF 393
NCI-H226 = test system: NCI-H226
A549 = test system: A549
NCI-H460 = test system: NCI-H460
LOX IMVI = test system: LOX IMVI
IGROV-1 = test system: IGROV-1
DLD-1 = test system: DLD-1
UACC-257 = test system: UACC-257
DMS-273 = test system: DMS-273
BT-549 = test system: BT-549
HCT-15 = test system: HCT-15
MDA-MB-231 = test system: MDA-MB-231
NCI/ADR-RES = test system: NCI/ADR-RES
PC-3 = test system: PC-3
HOP-18 = test system: HOP-18
Hs-578T = test system: Hs-578T
MCF7 = test system: MCF7

Measured: GI50

Cc1cn2c(=O)c3ccccc3nc2s1
inactive: HT-29 > 100 µM | SF-539 88.7 µM | SNB-19 > 100 µM | SNB-75 92.3 µM | SK-MEL-5 > 100 µM | RPMI-8226 > 100 µM | CAKI-1 > 100 µM | HL-60 > 100 µM | HCC 2998 > 100 µM | SF-268 > 100 µM | HOP-62 > 100 µM | OVCAR-8 > 100 µM | SW-620 > 100 µM | A498 > 100 µM | M19-MEL > 100 µM | TK-10 > 100 µM | LXFL 529 > 100 µM | OVCAR-4 76.6 µM | COLO 205 > 100 µM | KM12 > 100 µM | K562 > 100 µM | HCT-116 > 100 µM | SK-MEL-2 > 100 µM | SNB-78 > 100 µM | HOP-92 > 100 µM | MOLT-4 > 100 µM | OVCAR-5 > 100 µM | SK-MEL-28 > 100 µM | 786-0 > 100 µM | OVCAR-3 > 100 µM | SR > 100 µM | EKVX > 100 µM | NCI-H23 > 100 µM | UACC-62 > 100 µM | SN12C > 100 µM | KM-20L2 > 100 µM | Malme-3M > 100 µM | ACHN > 100 µM | SK-OV-3 > 100 µM | U-251 > 100 µM | DMS-114 > 100 µM | M14 > 100 µM | NCI-H522 > 100 µM | SF-295 > 100 µM | UO-31 > 100 µM | CCRF-CEM > 100 µM | RXF 393 > 100 µM | NCI-H226 > 100 µM | A549 > 100 µM | NCI-H460 > 100 µM | LOX IMVI > 100 µM | IGROV-1 > 100 µM | DLD-1 > 100 µM | UACC-257 > 100 µM | DMS-273 > 100 µM

CO[C@@]12[C@H](COC(N)=O)C3=C(C(=O)C(C)=C(N)C3=O)N1C[C@@H]1N[C@@H]12 [MITOMYCIN]
inactive: BT-549 1.75 µM | RPMI-8226 2.4 µM | TK-10 4.86 µM | LXFL 529 2.55 µM | OVCAR-4 3.56 µM | KM12 2.22 µM | MDA-MB-231 5.71 µM | K562 2.03 µM | SK-MEL-2 1.65 µM | NCI/ADR-RES 4.74 µM | HOP-92 3.49 µM | OVCAR-5 1.36 µM | SK-MEL-28 1.75 µM | OVCAR-3 3.07 µM | EKVX 4.62 µM | PC-3 2.24 µM | KM-20L2 1.3 µM | UO-31 1.87 µM | RXF 393 2.01 µM | IGROV-1 2.9 µM | DLD-1 2.8 µM | UACC-257 1.21 µM | Hs-578T 3.22 µM
active: HT-29 0.759 µM | HL-60 0.204 µM | HCC 2998 0.614 µM | OVCAR-8 1.11 µM | SW-620 0.485 µM | A498 0.714 µM | COLO 205 1.02 µM | HCT-116 0.701 µM | MOLT-4 0.23 µM | SR 0.122 µM | HOP-18 1.1 µM | Malme-3M 0.796 µM | SK-OV-3 1.02 µM | NCI-H522 0.667 µM | CCRF-CEM 0.229 µM | NCI-H226 0.714 µM | MCF7 0.148 µM | DMS-273 0.104 µM
1.29 µM: HCT-15

C#CCN(N=O)C(=O)NC(CCCCNC(=O)OCc1ccccc1)C(=O)OCc1ccccc1 (centres undefined)
inactive: HT-29 21.2 µM | SNB-19 47.2 µM | SNB-75 33.5 µM | RPMI-8226 18.7 µM | HL-60 17.3 µM | HCC 2998 31.5 µM | SF-268 47 µM | HOP-62 > 100 µM | OVCAR-8 17.4 µM | SW-620 23.3 µM | A498 > 100 µM | M19-MEL 34.2 µM | TK-10 27.7 µM | LXFL 529 17 µM | OVCAR-4 24.7 µM | COLO 205 28.5 µM | KM12 77.3 µM | K562 20.5 µM | HCT-116 33.8 µM | SK-MEL-2 37.8 µM | SNB-78 34.1 µM | HOP-92 15.7 µM | MOLT-4 16.8 µM | OVCAR-5 24.5 µM | SK-MEL-28 26.1 µM | 786-0 17.8 µM | OVCAR-3 36.1 µM | EKVX 22.7 µM | NCI-H23 67.6 µM | UACC-62 32.7 µM | SN12C 28.4 µM | HOP-18 20 µM | KM-20L2 54.6 µM | Malme-3M 28.2 µM | ACHN 55.5 µM | SK-OV-3 > 100 µM | U-251 27.9 µM | DMS-114 19.8 µM | M14 21.4 µM | NCI-H522 13.9 µM | SF-295 55.5 µM | UO-31 30.8 µM | CCRF-CEM 17.5 µM | RXF 393 46.7 µM | A549 76.2 µM | NCI-H460 61 µM | LOX IMVI 25.5 µM | IGROV-1 > 100 µM | DLD-1 20.1 µM | UACC-257 28.1 µM | DMS-273 43.9 µM
20.8 µM: HCT-15
